Columns and labels:
MEKK3 = target: T1, MEKK3 (Homo sapiens, UniProt Q99759); test: HotSpot kinase assay; format: biochemical; settings: read-out: % Enzyme Activity (relative to DMSO controls)
T1 construct: purchased Reaction Biology Corporation

EPHB2 = target: T2, EPHB2 (Homo sapiens, UniProt P29323); test: HotSpot kinase assay; format: biochemical; settings: read-out: % Enzyme Activity (relative to DMSO controls)
T2 construct: purchased Reaction Biology Corporation

MRCKb/CDC42BPB = target: T3, MRCKb/CDC42BPB (Homo sapiens, UniProt Q9Y5S2); test: HotSpot kinase assay; format: biochemical; settings: read-out: % Enzyme Activity (relative to DMSO controls)
T3 construct: purchased Reaction Biology Corporation

RSK4 = target: T4, RSK4 (Homo sapiens, UniProt Q9UK32); test: HotSpot kinase assay; format: biochemical; settings: read-out: % Enzyme Activity (relative to DMSO controls)
T4 construct: purchased Reaction Biology Corporation

CDK17/cyclin Y (PCTK2) = target: T5, CDK17/cyclin Y (PCTK2) (Homo sapiens, UniProt Q00537); test: HotSpot kinase assay; format: biochemical; settings: read-out: % Enzyme Activity (relative to DMSO controls)
T5 construct: purchased Reaction Biology Corporation

PAK5 = target: T6, PAK5 (Homo sapiens, UniProt Q9P286); test: HotSpot kinase assay; format: biochemical; settings: read-out: % Enzyme Activity (relative to DMSO controls)
T6 construct: purchased Reaction Biology Corporation

HaCat cells = test: western blot for cleaved PARP-1 or cleaved caspase 8; settings: 0.1, 1, or 10 µM, 8 h
KSR1 = target: T7, KSR1 (Homo sapiens, UniProt Q8IVT5); test: biochemical; settings: read-out: % Enzyme Activity (relative to DMSO controls)
T7 construct: purchased Reaction Biology Corporation

ALK2/ACVR1 = target: T8, ALK2/ACVR1 (Homo sapiens, UniProt Q04771); test: HotSpot kinase assay; format: biochemical; settings: read-out: % Enzyme Activity (relative to DMSO controls)
T8 construct: purchased Reaction Biology Corporation

PKA = target: T9, PKA (Homo sapiens, UniProt P17612); test: HotSpot kinase assay; format: biochemical
T9 construct: purchased Reaction Biology Corporation

PKD2/PRKD2 = target: T10, PKD2/PRKD2 (Homo sapiens, UniProt Q9BZL6); test: HotSpot kinase assay; format: biochemical; settings: read-out: % Enzyme Activity (relative to DMSO controls)
T10 construct: purchased Reaction Biology Corporation

MEKK2 = target: T11, MEKK2 (Homo sapiens, UniProt Q9Y2U5); test: HotSpot kinase assay; format: biochemical; settings: read-out: % Enzyme Activity (relative to DMSO controls)
T11 construct: purchased Reaction Biology Corporation
T11 sequence (Q9Y2U5 whole entry): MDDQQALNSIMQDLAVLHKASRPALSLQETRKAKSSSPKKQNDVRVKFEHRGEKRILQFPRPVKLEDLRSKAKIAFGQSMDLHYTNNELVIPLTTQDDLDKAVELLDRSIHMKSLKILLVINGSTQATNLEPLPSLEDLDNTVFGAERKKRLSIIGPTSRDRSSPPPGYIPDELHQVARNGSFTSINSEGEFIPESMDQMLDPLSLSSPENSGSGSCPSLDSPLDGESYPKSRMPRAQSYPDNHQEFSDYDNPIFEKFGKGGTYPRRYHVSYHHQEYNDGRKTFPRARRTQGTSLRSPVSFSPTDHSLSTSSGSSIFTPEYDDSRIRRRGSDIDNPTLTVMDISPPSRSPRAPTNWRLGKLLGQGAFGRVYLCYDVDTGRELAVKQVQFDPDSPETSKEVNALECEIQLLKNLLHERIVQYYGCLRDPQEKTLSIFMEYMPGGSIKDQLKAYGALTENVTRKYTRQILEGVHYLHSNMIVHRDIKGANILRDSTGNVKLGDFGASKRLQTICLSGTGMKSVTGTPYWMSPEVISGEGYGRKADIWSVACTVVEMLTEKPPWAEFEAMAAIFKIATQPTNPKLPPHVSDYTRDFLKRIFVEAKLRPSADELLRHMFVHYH

BTK = target: T12, BTK (Homo sapiens, UniProt Q06187); test: HotSpot kinase assay; format: biochemical; settings: read-out: % Enzyme Activity (relative to DMSO controls)
T12 construct: purchased Reaction Biology Corporation

JNK2 = target: T13, JNK2 (Homo sapiens, UniProt P45984); test: HotSpot kinase assay; format: biochemical; settings: read-out: % Enzyme Activity (relative to DMSO controls)
T13 construct: purchased Reaction Biology Corporation

P38g = target: T14, P38g (Homo sapiens, UniProt P53778); test: HotSpot kinase assay; format: biochemical; settings: read-out: % Enzyme Activity (relative to DMSO controls)
T14 construct: purchased Reaction Biology Corporation

MEK5 = target: T15, MEK5 (Homo sapiens, UniProt Q13163); test: HotSpot kinase assay; format: biochemical; settings: read-out: % Enzyme Activity (relative to DMSO controls)
T15 construct: purchased Reaction Biology Corporation

MYO3A = target: T16, MYO3A (Homo sapiens, UniProt Q8NEV4); test: HotSpot kinase assay; format: biochemical; settings: read-out: % Enzyme Activity (relative to DMSO controls)
T16 construct: purchased Reaction Biology Corporation

OSR1/OXSR1 = target: T17, OSR1/OXSR1 (Homo sapiens, UniProt O95747); test: HotSpot kinase assay; format: biochemical; settings: read-out: % Enzyme Activity (relative to DMSO controls)
T17 construct: purchased Reaction Biology Corporation

CDK3/cyclin E = target: T18, CDK3/cyclin E (Homo sapiens, UniProt Q00526); test: HotSpot kinase assay; format: biochemical; settings: read-out: % Enzyme Activity (relative to DMSO controls)
T18 construct: purchased Reaction Biology Corporation

P38d/MAPK13 = target: T19, P38d/MAPK13 (Homo sapiens, UniProt O15264); test: HotSpot kinase assay; format: biochemical; settings: read-out: % Enzyme Activity (relative to DMSO controls)
T19 construct: purchased Reaction Biology Corporation

CDK19/cyclin C = target: T20, CDK19/cyclin C (Homo sapiens, UniProt Q9BWU1); test: HotSpot kinase assay; format: biochemical; settings: read-out: % Enzyme Activity (relative to DMSO controls)
T20 construct: purchased Reaction Biology Corporation

SIK1 = target: T21, SIK1 (Homo sapiens, UniProt P57059); test: HotSpot kinase assay; format: biochemical; settings: read-out: % Enzyme Activity (relative to DMSO controls)
T21 construct: purchased Reaction Biology Corporation

TLK2 = target: T22, TLK2 (Homo sapiens, UniProt Q86UE8); test: HotSpot kinase assay; format: biochemical; settings: read-out: % Enzyme Activity (relative to DMSO controls)
T22 construct: purchased Reaction Biology Corporation

EPHA5 = target: T23, EPHA5 (Homo sapiens, UniProt P54756); test: HotSpot kinase assay; format: biochemical; settings: read-out: % Enzyme Activity (relative to DMSO controls)
T23 construct: purchased Reaction Biology Corporation

PKCtheta = target: T24, PKCtheta (Homo sapiens, UniProt Q04759); test: HotSpot kinase assay; format: biochemical; settings: read-out: % Enzyme Activity (relative to DMSO controls)
T24 construct: purchased Reaction Biology Corporation
T24 sequence (Q04759 whole entry): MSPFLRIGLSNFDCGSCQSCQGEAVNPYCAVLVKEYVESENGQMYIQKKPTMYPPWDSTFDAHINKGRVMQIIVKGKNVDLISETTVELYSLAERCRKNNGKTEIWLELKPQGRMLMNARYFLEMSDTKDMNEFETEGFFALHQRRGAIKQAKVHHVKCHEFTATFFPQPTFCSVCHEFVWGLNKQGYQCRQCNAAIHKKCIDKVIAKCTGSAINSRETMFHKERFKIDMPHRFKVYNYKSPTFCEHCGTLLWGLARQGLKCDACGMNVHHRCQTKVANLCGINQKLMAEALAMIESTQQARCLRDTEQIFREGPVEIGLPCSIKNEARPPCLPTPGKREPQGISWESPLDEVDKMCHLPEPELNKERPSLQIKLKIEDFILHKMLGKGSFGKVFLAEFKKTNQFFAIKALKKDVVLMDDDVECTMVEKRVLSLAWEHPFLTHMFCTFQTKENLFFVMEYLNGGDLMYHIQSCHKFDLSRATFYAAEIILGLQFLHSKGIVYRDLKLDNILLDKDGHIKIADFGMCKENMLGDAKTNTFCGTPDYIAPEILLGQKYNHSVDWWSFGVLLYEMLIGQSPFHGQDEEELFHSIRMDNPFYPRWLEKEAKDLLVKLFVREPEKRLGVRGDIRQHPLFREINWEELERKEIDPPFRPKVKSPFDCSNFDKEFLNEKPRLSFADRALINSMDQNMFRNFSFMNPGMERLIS

Aurora A = target: T25, Aurora A (Homo sapiens, UniProt O14965); test: HotSpot kinase assay; format: biochemical; settings: read-out: % Enzyme Activity (relative to DMSO controls)
T25 construct: purchased Reaction Biology Corporation

Haspin = target: T26, Haspin (Homo sapiens, UniProt Q8TF76); test: HotSpot kinase assay; format: biochemical; settings: read-out: % Enzyme Activity (relative to DMSO controls)
T26 construct: purchased Reaction Biology Corporation
T26 sequence (Q8TF76 whole entry): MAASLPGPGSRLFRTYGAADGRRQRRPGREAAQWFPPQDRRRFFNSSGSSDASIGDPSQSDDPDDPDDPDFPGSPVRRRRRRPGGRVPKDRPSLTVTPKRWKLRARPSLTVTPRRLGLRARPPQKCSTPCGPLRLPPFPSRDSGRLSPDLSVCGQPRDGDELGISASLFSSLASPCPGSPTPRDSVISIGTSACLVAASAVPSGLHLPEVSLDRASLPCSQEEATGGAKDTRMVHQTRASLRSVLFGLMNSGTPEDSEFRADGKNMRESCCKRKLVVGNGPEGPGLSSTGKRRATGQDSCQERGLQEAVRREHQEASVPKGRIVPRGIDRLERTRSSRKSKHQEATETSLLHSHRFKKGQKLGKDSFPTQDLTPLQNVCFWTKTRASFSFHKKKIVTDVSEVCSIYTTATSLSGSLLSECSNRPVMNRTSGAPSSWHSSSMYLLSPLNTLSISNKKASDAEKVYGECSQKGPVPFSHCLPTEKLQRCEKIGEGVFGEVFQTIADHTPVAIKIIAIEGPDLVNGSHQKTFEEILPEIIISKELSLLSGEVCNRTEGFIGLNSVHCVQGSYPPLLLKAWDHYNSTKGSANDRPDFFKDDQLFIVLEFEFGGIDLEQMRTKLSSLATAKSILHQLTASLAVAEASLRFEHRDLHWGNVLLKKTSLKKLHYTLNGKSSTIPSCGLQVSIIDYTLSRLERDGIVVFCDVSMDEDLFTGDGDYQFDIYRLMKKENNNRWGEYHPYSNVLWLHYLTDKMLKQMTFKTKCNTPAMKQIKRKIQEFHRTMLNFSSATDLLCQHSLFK

PKG1a = target: T27, PKG1a (Homo sapiens, UniProt Q13976); test: HotSpot kinase assay; format: biochemical; settings: read-out: % Enzyme Activity (relative to DMSO controls)
T27 construct: purchased Reaction Biology Corporation

PLK4/SAK = target: T28, PLK4/SAK (Homo sapiens, UniProt O00444); test: HotSpot kinase assay; format: biochemical; settings: read-out: % Enzyme Activity (relative to DMSO controls)
T28 construct: purchased Reaction Biology Corporation

in vitro = settings: human, Huh-7.5 cells infected with SARS-CoV-2
CDK5/P25 = target: T29, CDK5/P25 (Homo sapiens, UniProt Q00535); test: HotSpot kinase assay; format: biochemical; settings: read-out: % Enzyme Activity (relative to DMSO controls)
T29 construct: purchased Reaction Biology Corporation

ALK3/BMPR1A = target: T30, ALK3/BMPR1A (Homo sapiens, UniProt P36894); test: HotSpot kinase assay; format: biochemical; settings: read-out: % Enzyme Activity (relative to DMSO controls)
T30 construct: purchased Reaction Biology Corporation

PAK4 = target: T31, PAK4 (Homo sapiens, UniProt O96013); test: HotSpot kinase assay; format: biochemical; settings: read-out: % Enzyme Activity (relative to DMSO controls)
T31 construct: purchased Reaction Biology Corporation

FLT3 = target: T32, FLT3 (Homo sapiens, UniProt P36888); test: HotSpot kinase assay; format: biochemical; settings: read-out: % Enzyme Activity (relative to DMSO controls)
T32 construct: purchased Reaction Biology Corporation
T32 sequence (P36888 27-993): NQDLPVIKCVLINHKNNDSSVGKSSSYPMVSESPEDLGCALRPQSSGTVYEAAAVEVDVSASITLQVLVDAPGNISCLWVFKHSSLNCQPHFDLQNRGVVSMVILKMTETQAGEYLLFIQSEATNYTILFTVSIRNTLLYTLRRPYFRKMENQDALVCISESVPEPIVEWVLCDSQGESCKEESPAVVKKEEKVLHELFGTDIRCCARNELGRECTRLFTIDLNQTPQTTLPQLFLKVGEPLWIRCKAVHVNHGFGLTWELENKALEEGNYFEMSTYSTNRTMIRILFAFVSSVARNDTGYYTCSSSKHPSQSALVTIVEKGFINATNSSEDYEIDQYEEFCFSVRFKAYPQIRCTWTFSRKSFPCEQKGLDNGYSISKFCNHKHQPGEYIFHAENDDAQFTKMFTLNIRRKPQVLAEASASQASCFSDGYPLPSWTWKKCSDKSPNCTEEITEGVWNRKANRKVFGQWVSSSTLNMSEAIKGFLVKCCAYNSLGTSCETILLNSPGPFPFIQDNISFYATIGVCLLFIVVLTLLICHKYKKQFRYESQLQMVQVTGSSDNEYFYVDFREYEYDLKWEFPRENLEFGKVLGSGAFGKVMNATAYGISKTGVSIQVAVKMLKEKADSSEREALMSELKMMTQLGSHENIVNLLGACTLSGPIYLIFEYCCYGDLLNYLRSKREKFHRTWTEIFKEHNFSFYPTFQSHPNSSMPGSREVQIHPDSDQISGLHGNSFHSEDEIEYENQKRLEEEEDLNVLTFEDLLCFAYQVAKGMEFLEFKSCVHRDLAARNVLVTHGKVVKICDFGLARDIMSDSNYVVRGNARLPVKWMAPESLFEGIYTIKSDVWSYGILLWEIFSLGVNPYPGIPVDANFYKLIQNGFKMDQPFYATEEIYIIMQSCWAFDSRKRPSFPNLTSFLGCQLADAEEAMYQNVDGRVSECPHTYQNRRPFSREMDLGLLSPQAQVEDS

MNK1 = target: T33, MNK1 (Homo sapiens, UniProt Q9BUB5); test: HotSpot kinase assay; format: biochemical; settings: read-out: % Enzyme Activity (relative to DMSO controls)
T33 construct: purchased Reaction Biology Corporation

FGFR1 = target: T34, FGFR1 (Homo sapiens, UniProt P11362); test: HotSpot kinase assay; format: biochemical; settings: read-out: % Enzyme Activity (relative to DMSO controls)
T34 construct: purchased Reaction Biology Corporation
T34 sequence (P11362 22-822): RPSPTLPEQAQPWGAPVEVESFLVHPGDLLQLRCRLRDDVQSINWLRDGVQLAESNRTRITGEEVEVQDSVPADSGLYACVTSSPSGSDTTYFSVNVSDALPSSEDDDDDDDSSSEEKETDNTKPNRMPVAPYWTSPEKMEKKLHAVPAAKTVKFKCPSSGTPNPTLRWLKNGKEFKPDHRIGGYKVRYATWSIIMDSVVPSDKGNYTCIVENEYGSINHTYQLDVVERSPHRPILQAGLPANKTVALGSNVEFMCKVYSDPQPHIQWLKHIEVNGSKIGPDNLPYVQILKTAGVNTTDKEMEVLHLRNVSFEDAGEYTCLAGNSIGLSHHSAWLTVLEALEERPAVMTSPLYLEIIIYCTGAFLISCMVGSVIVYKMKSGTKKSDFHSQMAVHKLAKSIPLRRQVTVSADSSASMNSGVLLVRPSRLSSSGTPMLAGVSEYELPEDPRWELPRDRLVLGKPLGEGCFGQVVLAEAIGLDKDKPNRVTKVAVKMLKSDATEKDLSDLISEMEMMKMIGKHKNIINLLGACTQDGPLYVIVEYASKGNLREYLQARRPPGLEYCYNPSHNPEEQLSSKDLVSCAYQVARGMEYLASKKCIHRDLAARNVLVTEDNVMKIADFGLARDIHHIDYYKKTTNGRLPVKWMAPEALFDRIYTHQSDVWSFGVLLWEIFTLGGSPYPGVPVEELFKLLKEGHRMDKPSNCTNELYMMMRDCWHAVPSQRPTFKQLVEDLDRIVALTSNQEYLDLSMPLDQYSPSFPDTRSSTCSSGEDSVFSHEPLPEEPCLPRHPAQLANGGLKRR

MLK4 = target: T35, MLK4 (Homo sapiens, UniProt Q5TCX8); test: HotSpot kinase assay; format: biochemical; settings: read-out: % Enzyme Activity (relative to DMSO controls)
T35 construct: purchased Reaction Biology Corporation
T35 sequence (Q5TCX8 whole entry): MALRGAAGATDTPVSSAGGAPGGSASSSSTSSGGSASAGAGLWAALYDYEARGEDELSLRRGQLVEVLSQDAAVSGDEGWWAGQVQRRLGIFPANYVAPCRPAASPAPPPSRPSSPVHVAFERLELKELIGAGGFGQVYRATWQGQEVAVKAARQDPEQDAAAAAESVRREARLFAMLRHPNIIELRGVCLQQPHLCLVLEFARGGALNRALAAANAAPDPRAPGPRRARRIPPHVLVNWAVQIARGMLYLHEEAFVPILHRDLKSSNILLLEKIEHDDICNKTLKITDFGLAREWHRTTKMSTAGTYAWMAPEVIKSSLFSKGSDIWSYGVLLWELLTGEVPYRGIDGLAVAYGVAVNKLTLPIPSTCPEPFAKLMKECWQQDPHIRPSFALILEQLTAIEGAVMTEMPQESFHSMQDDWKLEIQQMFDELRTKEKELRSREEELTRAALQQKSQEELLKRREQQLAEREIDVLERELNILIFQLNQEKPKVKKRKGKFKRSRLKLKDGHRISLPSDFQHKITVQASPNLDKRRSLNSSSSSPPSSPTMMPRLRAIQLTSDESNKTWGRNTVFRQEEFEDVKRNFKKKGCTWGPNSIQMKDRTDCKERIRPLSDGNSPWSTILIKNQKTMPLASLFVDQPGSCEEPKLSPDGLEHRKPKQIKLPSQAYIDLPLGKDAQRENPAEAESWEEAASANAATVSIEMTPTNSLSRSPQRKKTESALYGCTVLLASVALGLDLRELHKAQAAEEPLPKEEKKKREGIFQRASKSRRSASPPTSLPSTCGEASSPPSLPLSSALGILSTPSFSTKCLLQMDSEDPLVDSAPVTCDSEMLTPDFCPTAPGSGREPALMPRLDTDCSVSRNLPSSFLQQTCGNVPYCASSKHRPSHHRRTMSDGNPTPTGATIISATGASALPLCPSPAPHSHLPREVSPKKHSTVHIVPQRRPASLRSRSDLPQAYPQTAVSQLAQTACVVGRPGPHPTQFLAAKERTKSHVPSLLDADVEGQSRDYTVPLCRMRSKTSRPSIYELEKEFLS

CAMK2a = target: T36, CAMK2a (Homo sapiens, UniProt Q9UQM7); test: HotSpot kinase assay; format: biochemical; settings: read-out: % Enzyme Activity (relative to DMSO controls)
T36 construct: purchased Reaction Biology Corporation

CDK5/p35 = target: T37, CDK5/p35 (Homo sapiens, UniProt Q00535); test: HotSpot kinase assay; format: biochemical; settings: read-out: % Enzyme Activity (relative to DMSO controls)
T37 construct: purchased Reaction Biology Corporation

DCAMKL1 = target: T38, DCAMKL1 (Homo sapiens, UniProt O15075); test: HotSpot kinase assay; format: biochemical; settings: read-out: % Enzyme Activity (relative to DMSO controls)
T38 construct: purchased Reaction Biology Corporation

TRKB = target: T39, TRKB (Homo sapiens, UniProt Q16620); test: HotSpot kinase assay; format: biochemical; settings: read-out: % Enzyme Activity (relative to DMSO controls)
T39 construct: purchased Reaction Biology Corporation

CO[C@@H]1[C@H](N(C)C(=O)CCC(=O)NCc2cn(CCCS(=O)(=O)O)nn2)C[C@H]2O[C@]1(C)n1c3ccccc3c3c4c(c5c6ccccc6n2c5c31)C(=O)NC4 [CIMSS]
remaining activity at 10 µM (MEKK3): 6.32%
remaining activity at 10 µM (EPHB2): 28.5%
remaining activity at 10 µM (MRCKb/CDC42BPB): 75.8%
remaining activity at 10 µM (RSK4): 6.64%
remaining activity at 10 µM (CDK17/cyclin Y (PCTK2)): 54.2%
remaining activity at 10 µM (PAK5): 7.72%
PARP-1 or caspase 8 cleavage (HaCat cells): did not induce
remaining activity at 10 µM (KSR1): 90.8%
remaining activity at 10 µM (ALK2/ACVR1): 72.7%
IC50 (PKA; Supplementary Table 1, read-out: IC50 (Molar concentration)): 42.3 nM
remaining activity at 10 µM (PKA; read-out: % Enzyme Activity (relative to DMSO controls), 10µM): 6.32%
remaining activity at 10 µM (PKD2/PRKD2): 11.9%
remaining activity at 10 µM (MEKK2): 8.32%
remaining activity at 10 µM (BTK): 6.64%
remaining activity at 10 µM (JNK2): 42.3%
remaining activity at 10 µM (P38g): 30.3%
remaining activity at 10 µM (MEK5): 40.4%
remaining activity at 10 µM (MYO3A): 6.46%
remaining activity at 10 µM (OSR1/OXSR1): 54.2%
remaining activity at 10 µM (CDK3/cyclin E): 13.9%
remaining activity at 10 µM (P38d/MAPK13): 74.7%
remaining activity at 10 µM (CDK19/cyclin C): 37.9%
remaining activity at 10 µM (SIK1): 1%
remaining activity at 10 µM (TLK2): 67%
remaining activity at 10 µM (EPHA5): 52.7%
remaining activity at 10 µM (PKCtheta): 7.08%
remaining activity at 10 µM (Aurora A): 1.92%
remaining activity at 10 µM (Haspin): 49.5%
remaining activity at 10 µM (PKG1a): 7.02%
remaining activity at 10 µM (PLK4/SAK): 6.73%
viability at 24 h, 0.78125 µM (in vitro): 84.7%
viability at 24 h, 1.5625 µM (in vitro): 85.5%
viability at 24 h, 3.125 µM (in vitro): 87.6%
viability at 24 h, 25 µM (in vitro): 87.9%
viability at 24 h, 50 µM (in vitro): 97.2%
viability at 72 h, 0.78125 µM (in vitro): 94.8%
viability at 72 h, 25 µM (in vitro): 80.4%
viability at 72 h, 50 µM (in vitro): 70.1%
remaining activity at 10 µM (CDK5/P25): 7.17%
remaining activity at 10 µM (ALK3/BMPR1A): 79.5%
remaining activity at 10 µM (PAK4): 7.78%
remaining activity at 10 µM (FLT3): 4.55%
remaining activity at 10 µM (MNK1): 42.6%
remaining activity at 10 µM (FGFR1): 6.31%
remaining activity at 10 µM (MLK4): 0.87%
remaining activity at 10 µM (CAMK2a): 1.36%
remaining activity at 10 µM (CDK5/p35): 8.78%
remaining activity at 10 µM (DCAMKL1): 83.7%
remaining activity at 10 µM (TRKB): 1.79%

Reference: PMC9569420 (Communications Biology, 2022)
